Results on two compounds are retold here after BindingDB's records for doi:10.3109/14756366.2012.715286 (Chulalongkorn University, 2013).

The structures appear in SMILES notation.

This experiment concerns the target T1, Tyrosine-protein phosphatase non-receptor type 1 [1-321] (Homo sapiens, UniProt P18031).
T1 construct: 1-321
T1 sequence (P18031 whole entry): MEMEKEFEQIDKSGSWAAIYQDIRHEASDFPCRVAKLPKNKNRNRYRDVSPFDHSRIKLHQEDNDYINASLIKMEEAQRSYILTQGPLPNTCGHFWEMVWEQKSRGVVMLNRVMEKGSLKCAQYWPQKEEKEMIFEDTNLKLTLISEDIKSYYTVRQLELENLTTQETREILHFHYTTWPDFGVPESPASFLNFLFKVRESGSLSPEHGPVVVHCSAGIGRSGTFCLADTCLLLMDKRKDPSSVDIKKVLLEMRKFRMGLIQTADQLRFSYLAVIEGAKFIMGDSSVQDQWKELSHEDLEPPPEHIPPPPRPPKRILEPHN
Description: PTP1B Activity Assay. Conditions: pH 7.5; 37 °C. The procedure:
PTP1B was diluted before the experiment to 1.2 μg/mL in Tris buffer, pH7.6 (10 mM Tris, 1.0 mM EDTA, 3.0 mM DTT, 0.01% w/v NaN3). The tested compounds were dissolved in DMSO. The enzyme reaction buffer was Tris buffer, pH 7.5 (50 mM Tris, 0.15 M NaCl, 3 mM DTT). A typical 10 μL of tested compounds was added to the enzyme solution (50 μL), and the resulting mixture was preincubated at 37°C for 30 min. The enzyme reaction was initiated by the addition of 8 mM p-NPP (40 μL).

Regarding `O=C(O)/C=C/c1ccc(O)cc1` [p-Coumaric Acid], the midpoint of inhibition, the IC50, lay at 168 µM. Then `O=C(O)/C=C/c1ccccc1O` [(2E)-3-(2-hydroxyphenyl)prop-2-enoic acid], with 138 µM.
